Laboratory results from PMC11638965, “Leveraging Dual-Ligase Recruitment to Enhance Protein Degradation via a Heterotrivalent Proteolysis Targeting Chimera” (Journal of the American Chemical Society, 2024).
Entries after “also recorded” stand apart in the source; their conditions may differ. Where two headings read alike, the source gives them in different places.

Tests used:
[1] = test system: RKO WT cells; assay: cells; format: cell-based, human; conditions: Homo sapiens
Experimental: RKO WT, VHL KO, CRBN KO and CRBN/VHL dKO cells were cultured in Dulbecco’s modified Eagle’s medium supplemented with 10% FCS and 1% penicillin–streptomycin. RKO CRBN KO and VHL KO were generated previously.[45] RKO CRBN/VHL dKO cells were generated by transiently expressing pSpCas9(BB)-2A-GFP (PX458) (Addgene 48138) loaded with a short guide RNA (sgRNA) targeting VHL (Fwd: […], Rev: […]) in RKO CRBN KO cells. Clones were single cell seeded and checked for VHL and CRBN double deletion via Western blot or PCR on genomic DNA (gDNA).
Cells were seeded in 96-well plates at a cell density of 3750 cells per well and treated for 3 days with DMSO or drug at ten √10 serial diluted concentrations. […] Cell viability was assessed using the CellTiter-Glo assay (CellTiter-Glo Luminescent Cell Viability Assay, Promega G7573) according to manufacturer instructions. Luminescence signal was measured on a Multilabel Plate Reader Platform Victor X3 model 2030 (PerkinElmer). Survival curves and EC50 values were determined using GraphPad Prism v.10.0.3 by fitting a nonlinear regression to the log10-transformed drug concentration and the relative viability after normalization of each data point to the mean luminescence of the lowest drug concentration.

[2] = molecular target: T1, BRD3 (Homo sapiens, UniProt Q15059); assay: Live cell kinetic HiBiT degradation assay, HiBiT-BRD3 HEK293 cells; format: cell-based
T1 construct: HiBiT, is appended to the N-terminus of endogenous BRD2, BRD3, and BRD4; endogenous in cells
Experimental: (§1) HEK293 HiBiT-BRD2 (LgBiT stable), HEK293 HiBiT-BRD3 (LgBiT stable), and HEK293 HiBiT-BRD4 (LgBiT stable) were created using CRISPR/Cas9 to insert at HiBiT tag at the N-terminal genomic loci of BRD2, BRD3, or BRD4 in a cell line stably expressing LgBiT protein as described previously.[23]
(§2) For kinetic degradation experiments, HEK293 HiBiT-BRD2, 3, or 4 (LgBiT stable) cells and HEK293 HiBiT-BRD4 (LgBiT) CRBN KO and VHL KO cells were plated at 20,000 cells/well in DMEM +10% FBS in white 96-well tissue culture plates and allowed to adhere overnight. The next day, media was removed and 90 μL of prewarmed CO2-independent medium (Gibco) containing Endurazine (Promega) at a 1:100 dilution from stock was added. Plates were incubated at 37 °C for 3 h to allow luminescence to equilibrate. A threefold dilution series of each PROTAC at 10x the desired final concentration was prepared (with the amount of DMSO in each treatment condition kept constant). After luminescence equilibration, a preread luminescence measurement was taken (prior to compound addition) to allow for baseline normalization to account for possible plating differences. Cells were then treated with 10 μL of the prepared PROTAC dilution series (in triplicate or quadruplicate). Treated plates were placed in a GloMax Discover luminometer (Promega) prewarmed to 37 °C and luminescence measurements were obtained every 7 min for 24 h. Kinetic degradation plots were obtained by first normalizing time course luminescence readings in each well to the preread measurement, then to the average value of the DMSO only control at each time point. Data was analyzed using GraphPad Prism (version 8) and excel. Dmax values were identified as the lowest luminescence reading in each well. Rate constant values were calculated using a one phase exponential decay Y = (Y0-Plateau) e(K*^X) + Plateau using Prism (Y0 constrained to 1). Dmax 50 values were calculated by plotting Dmax as a function of concentration, then fitting plots using the following equation: [drawing 1] to determine IC50.

[3] = molecular target: BRD4 (Homo sapiens, UniProt O60885); assay: Live cell kinetic HiBiT degradation assay, HiBiT-BRD4 HEK293 cells (parental, CRBN KO, VHL KO); format: cell-based; conditions: for EC50: HiBiT-BRD4 CRISPR knock-in HEK293 cells, live cell kinetic degradation, 24 h, read-out: Dmax 50 BRD4; for on-target BRD4 degradation activity (in words): parental, CRBN KO and VHL KO HiBiT-BRD4 HEK293 cells (Figure S5)
Experimental: as §1, §2
HiBiT-BRD4 (LgBiT stable) HEK293 cells (Promega) were used to generate both VHL KO HiBiT-BRD4 (LgBiT stable) and CRBN KO HiBiT-BRD4 (LgBiT stable) cell lines. For VHL, gRNAs targeting exon 1 ([…]) and exon 2 ([…]) and for CRBN, gRNAs targeting exon 3 ([…]) and exon 6 ([…]) were purchased from IDT DNA (Table 5). For each gRNA, tracrRNA/crRNA duplexes were formed by combining 10 μL of 100 μM Alt-R […] (IDT), 100 μM Alt-R crRNA (IDT) and heating at 95C for 5 min, then were allowed to cool to room temp for 20 min. RNPs were then formed by combining 75 pmol Cas9 (IDT) with 2.4 μL total of prepared tracrRNA/crRNA complex (1.2 μL for each gRNA targeting each exon). Cells were then trypsinized and resuspended at 10,000,000 cells/mL in 1 mL of Mirus Ingenio electroporation solution. Three μL of 100 μM electroporation enhancer (Mirus) was added, along with 3 μL of RNP solution. Cells were electroporated in 2 mm cuvettes using a BioRad system (190 V, 950 μF, infinite resistance) and were then plated in a T75 flask in full growth medium to allow for recovery. After recovery from electroporation, knockout pools were sorted for single cells in 96-well tissue culture treated plates. Clonal populations which expanded from single cells were then screened for loss of function of VHL by treating with MZ1, or loss of function of CRBN by treating with dBET6, using a HiBiT-BRD4 luminescent readout assay. Genomic DNA isolated from candidate clones was then PCR-amplified (Table of primers below), Gibson-assembled into a pF1A plasmid backbone, transformed into E. coli., and then Sanger sequenced to confirm presence of indels in the targeted exons. […] VHL exon 3 carried a 19 bp deletion on one allele, and a 1 bp insertion on the other allele, both occurring after the premature stop codon in exon 1.

[4] = test system: KBM7 cells; assay: Cell viability assay (CellTiter-Glo); format: cell-based, human; conditions: Homo sapiens, KBM-7; WT KBM7, 5.12 pM to 10 uM, n = 3 (Table S4)
Experimental: (§3) Cells were seeded in 96-well plates at a cell density of […], and each treatment was performed in biological triplicates. Cell viability was assessed using the CellTiter-Glo assay (CellTiter-Glo Luminescent Cell Viability Assay, Promega G7573) according to manufacturer instructions. Luminescence signal was measured on a Multilabel Plate Reader Platform Victor X3 model 2030 (PerkinElmer). Survival curves and EC50 values were determined using GraphPad Prism v.10.0.3 by fitting a nonlinear regression to the log10-transformed drug concentration and the relative viability after normalization of each data point to the mean luminescence of the lowest drug concentration.

[5] = test system: K562 cells; assay: Cell viability assay (CellTiter-Glo); format: cell-based, human; conditions: Homo sapiens; WT K562, 5.12 pM to 10 uM, n = 3 (Table S4)
Experimental: as §3

[6] = 72 h, 500 pM to 10 μM, 3 days (Figure 10, Table S6), read-out: EC50 RKO WT

T1 sequence (Q15059 whole entry): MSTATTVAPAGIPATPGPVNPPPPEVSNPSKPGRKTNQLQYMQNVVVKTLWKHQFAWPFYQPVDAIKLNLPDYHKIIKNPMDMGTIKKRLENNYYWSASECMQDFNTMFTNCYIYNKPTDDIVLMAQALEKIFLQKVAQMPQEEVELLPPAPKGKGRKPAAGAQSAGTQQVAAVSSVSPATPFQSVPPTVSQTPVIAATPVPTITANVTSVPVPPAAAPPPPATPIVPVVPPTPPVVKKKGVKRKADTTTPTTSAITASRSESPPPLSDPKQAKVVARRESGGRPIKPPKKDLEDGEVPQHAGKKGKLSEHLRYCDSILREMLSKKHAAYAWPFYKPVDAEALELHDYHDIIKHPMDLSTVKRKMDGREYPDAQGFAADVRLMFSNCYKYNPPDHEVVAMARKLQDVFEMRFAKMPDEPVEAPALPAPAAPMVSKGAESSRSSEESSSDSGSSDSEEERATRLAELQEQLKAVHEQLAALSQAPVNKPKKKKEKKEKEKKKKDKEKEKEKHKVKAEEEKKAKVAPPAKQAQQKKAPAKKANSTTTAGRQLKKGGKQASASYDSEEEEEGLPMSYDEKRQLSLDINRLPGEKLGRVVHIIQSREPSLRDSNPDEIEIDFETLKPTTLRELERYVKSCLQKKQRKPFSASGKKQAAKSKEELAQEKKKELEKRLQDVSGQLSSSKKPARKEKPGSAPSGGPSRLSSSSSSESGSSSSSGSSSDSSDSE

Cc1ncsc1-c1ccc(CNC(=O)[C@@H]2C[C@@H](O)CN2C(=O)[C@@H](NC(=O)COCC(C)(COCCOCCOCCOC(=O)C[C@@H]2N=C(c3ccc(Cl)cc3)c3c(sc(C)c3C)-n3c(C)nnc32)COCCOCCOCCN2CCN(c3cccc4c3C(=O)N(C3CCC(=O)NC3=O)C4=O)CC2)C(C)(C)C)cc1 (mixture of isomers) [AB3029 (31), (17S)-11-((2-(2-(2-(4-(2-(2,6-dioxopiperidin-3-yl)-1,3-dioxoisoindolin-4-yl)piperazin-1-yl)ethoxy)ethoxy)ethoxy)methyl)-17-((2S,4R)-4-hydroxy-2-((4-(4-methylthiazol-5-yl)benzyl)carbamoyl)pyrrolidine-1-carbonyl)-11,18,18-trimethyl-15-oxo-3,6,9,13-tetraoxa-16-azanonadecyl 2-((S)-4-(4-chlorophenyl)-2,3,9-trimethyl-6H-thieno[3,2-f][1,2,4]triazolo[4,3-a][1,4]diazepin-6-yl)acetate]
EC50 ([1]; WT RKO, 316 pM to 10 μM, n = 3 (Table S4), read-out: EC50 RKO): 1020 nM
DC50 ([2]; HiBiT-BRD3 CRISPR knock-in HEK293 cells, live cell kinetic degradation, 24 h, read-out: Dmax 50 BRD3): 6.2 nM
λmax BRD3 (degradation rate) ([2]; HiBiT-BRD3 knock-in HEK293 cells): 2.36 h⁻¹
EC50 [3]: 15 nM
λmax BRD4 (degradation rate) ([3]; HiBiT-BRD4 knock-in HEK293 cells): 1.99 h⁻¹
EC50 [4]: 294 nM
EC50 [5]: 494 nM

Cc1ncsc1-c1ccc(CNC(=O)[C@@H]2C[C@@H](O)CN2C(=O)[C@@H](NC(=O)COCC(COCCOCCOCCNc2cc3c(cc2F)C(=O)N(C2CCC(=O)NC2=O)C3=O)(COCCOCCOCCOC(=O)C[C@@H]2N=C(c3ccc(Cl)cc3)c3c(sc(C)c3C)-n3c(C)nnc32)COCCOCCOCCOC(=O)C[C@@H]2N=C(c3ccc(Cl)cc3)c3c(sc(C)c3C)-n3c(C)nnc32)C(C)(C)C)cc1 (mixture of isomers) [AB3124 (86)]
EC50 ([1]; 72 h, 316 pM to 10 μM, 3 days, n = 3 (Figures 5 and 8C, Table S5), read-out: EC50 RKO WT): 33 nM
EC50 [3]: 1.1 nM
treatment concentrations with observable hook-effect ([3]; HiBiT-BRD4 HEK293 cells): ≥ 333 nM
BRD4 degradation rate (in words) ([3]; HiBiT-BRD4 HEK293 cells (Figure S4)): remarkably slow compared to the rapid degradation mediated by 27
Dmax ([3]; HiBiT-BRD4 HEK293 cells, read-out: final Dmax less than for 26 and 27): > 10%

Cc1ncsc1-c1ccc([C@H](C)NC(=O)[C@@H]2C[C@H](O)CN2C(=O)[C@@H](NC(=O)COCC(C)(COCCOCCOCCNc2cc3c(cc2F)C(=O)N(C2CCC(=O)NC2=O)C3=O)COCCOCCOCCOC(=O)C[C@@H]2N=C(c3ccc(Cl)cc3)c3c(sc(C)c3C)-n3c(C)nnc32)C(C)(C)C)cc1 (mixture of isomers) [cis-AB3067 (94), (17S)-11-((2-(2-(2-((2-(2,6-dioxopiperidin-3-yl)-6-fluoro-1,3-dioxoisoindolin-5-yl)amino)ethoxy)ethoxy)ethoxy)methyl)-17-((2S,4S)-4-hydroxy-2-(((S)-1-(4-(4-methylthiazol-5-yl)phenyl)ethyl)carbamoyl)pyrrolidine-1-carbonyl)-11,18,18-trimethyl-15-oxo-3,6,9,13-tetraoxa-16-azanonadecyl 2-((S)-4-(4-chlorophenyl)-2,3,9-trimethyl-6H-thieno[3,2-f][1,2,4]triazolo[4,3-a][1,4]diazepin-6-yl)acetate]
EC50 [1, 6]: 48 nM
on-target BRD4 degradation activity (in words) ([3]; listed as 94): inactive in CRBN KO cells; also recorded: increase in degradation potency relative to 27 in both parental and VHL KO cells

Cc1ncsc1-c1ccc([C@H](C)NC(=O)[C@@H]2C[C@H](O)CN2C(=O)[C@@H](NC(=O)COCC(C)(COCCOCCOCCNc2cc3c(cc2F)C(=O)N(C2CCC(=O)N(C)C2=O)C3=O)COCCOCCOCCOC(=O)C[C@@H]2N=C(c3ccc(Cl)cc3)c3c(sc(C)c3C)-n3c(C)nnc32)C(C)(C)C)cc1 (mixture of isomers) [neg-cis-AB3067 (95), (17S)-11-((2-(2-(2-((6-fluoro-2-(1-methyl-2,6-dioxopiperidin-3-yl)-1,3-dioxoisoindolin-5-yl)amino)ethoxy)ethoxy)ethoxy)methyl)-17-((2S,4S)-4-hydroxy-2-(((S)-1-(4-(4-methylthiazol-5-yl)phenyl)ethyl)carbamoyl)pyrrolidine-1-carbonyl)-11,18,18-trimethyl-15-oxo-3,6,9,13-tetraoxa-16-azanonadecyl 2-((S)-4-(4-chlorophenyl)-2,3,9-trimethyl-6H-thieno[3,2-f][1,2,4]triazolo[4,3-a][1,4]diazepin-6-yl)acetate]
EC50 [1, 6]: 594 nM
EC50 ([1]; RKO, span over RKO WT, CRBN KO, VHL KO and CRBN/VHL dKO (Figure 10), read-out: EC50s in each WT, KO and dKO RKO cell line): 522 to 657 nM
on-target BRD4 degradation activity (in words) [3]: no degradation of BRD4 in any of the cell lines
